Experimental findings from US20030108872A1, “Genomics-assisted rapid identification of targets” (priority 2000, published 2003) are described below.

Test [1] deals with strains carrying the wild-type murA gene (single copy or multiple copies). The test is described as follows: Growth on MHB plates with phosphomycin, wild-type murA. It is filed as cell-based, E. coli. The method, then:
(§1) E. coli mutants resistant to phosphomycin were obtained by plating E. coli MC1061 cells in the presence of 5 μg/ml phosphomycin (about 5×MIC), in MHB. Colonies of these resistant mutants were picked and repatched on MHB plates supplemented with 5 μg/ml. […] To determine whether the phenotype of phosphomycin resistance is due to these changes in the murA gene, primers murA-F1 and murA-R1 were used to amplify up a region consisting of 1 kb upstream of the murA gene and 1 kb downstream of the murA gene using as template, DNA extracted from MC1061 and from the phosphomycin-resistant murA mutants. The 3.5 kb PCR amplification fragments were cloned into a high copy vector, and 3 independent clones were picked for each type. The clones, carrying multi-copy plasmids with either wild-type murA or mutated mura, were streaked onto MHB plates and on MHB supplemented with 5, 25, and 50 ,μg/ml phosphomycin. The wild-type MC1061 strain (carrying a single copy of the wild-type murA gene) and the original mutants resistant to phosphomycin were used as controls. All strains grew on MHB plates without phosphomycin. On MHB plates with 5 μg/ml phosphomycin, there was slight growth for strains carrying the wild-type murA gene, whether present in single copy or multiple copies, whereas there was robust growth for cells with the mutated murA gene, whether present in single or multiple copies. On MHB plates with 25 μg/ml phosphomycin, there was no growth for strains carrying the wild-type mura gene, whether present in single copy or multiple copies, but there was robust growth for cells carrying single or multiple copies of the mutated murA gene. On MHB plates with 50 μg/ml phosphomycin, there was no growth for strains carrying wild-type murA (whether present in single copy or multiple copies) but slight growth for strains carrying the mutated murA gene whether present in single or multiple copies. Clearly, the mutants isolated because of their phenotype of resistance to phosphomycin carry mutant mura genes which can confer resistance when transferred to other cells by transformation. […]

The subject of test [2] is B. subtilis NO-347 (BD170 thrC::Pspac-murA kanR ΔmurA::CmR). Put plainly: MIC by microbroth dilution in B. subtilis under-expressing murA. It is filed as cell-based. The note with it: IPTG 0-0.1 mM, compared to the control strain, FIG. 10. The procedure:
Materials and Methods. The materials are the same as discussed above. Plasmids are listed in Table 4 B. subtilis strains were routinely grown in LB media or on LB agar plates containing 1.5% agar (Sambrook et al., MOLECULAR CLONING: A LABORATORY MANUAL, 2nd ed., Cold Spring Harbor Laboratory Press, 1989). MIC determination is performed using microbroth dilution-cultures grown in Mueller Hinton broth in 96-well microtiter plates purchased from Nunc (Plates—Cat. No. 262162; Lids—Cat. No. 264122). When required, media were supplemented with 5 μg/ml chloramphenicol or 10 μg/ml kanamycin. IPTG was added to culture media at a final concentration of 0.05 mM for routine culture growth of B. subtilis NO-347 (BDI70 thrC::Pspac-murA kan^R ΔmurA::Cm^R), which is dependent on IPTG for growth.
The endogenous murA gene in NO-360 was deleted by allelic replacement as follows (see FIG. 9). DNA fragments flanking the 5′ and 3′ ends of the murA gene were amplified from B. subtilis 168 genomic DNA using primer pairs KO mura F1+R2 and KO murA F2+R1, respectively. The 5′ and 3′ flanking fragments were linked to the Cm^R gene from pEVP3 using the cross-over PCR technique with the primer pair KO mura F1+R1. The resulting PCR product (shown in FIG. 9B) was used to transform naturally competent B. subtilis NO-360. Cm^R clones were selected in the presence of 0.01 mM and 0.05 mM IPTG. Allelic replacement of murA in Cm^R clones was verified by PCR. Strain NO-347 (BD170 thrC::Pspac-murA Kan^R ΔmurA::Cm^R) was chosen for MIC determinations for phosphomycin in presence of various concentrations of the regulator IPTG.
MIC determinations. Determination of minimum inhibitory concentration (MIC) for phosphomycin, novobiocin, erythromycin and trimethoprim lactate were performed in 96-well microliter plates using the microbroth dilution technique as described in NCCLS. 1997. Methods for dilution antimicrobial susceptibility tests for bacteria that grow aerobically-fourth edition; approved standard. NCCLS document M7-A4. NCCLS, Wayne, Pa. For MIC determinations using strain NO-347, various concentrations (0-0.1 mM) were added to the media. Growth was quantitated by OD600 measurements using a SpectroMax 250 plate reader (Molecular Devices).
In general terms: Broth dilution looks for growth in wells or tubes with falling amounts of substance.

The test system of test [3] is cells with the mutated murA gene (single or multiple copies). The test is described as follows: Growth on MHB plates with phosphomycin, mutated murA. Format: cell-based, E. coli. The method, then:
as §1

For test [4], the system named is E. coli MC1061, Ec211, Ec261, Ec239, Ec238. The test is described as follows: Transformation selection: growth on drug plates of strains over-expressing folA or murA. Format: cell-based. The note with it: for growth on MHB plates supplemented with drug: 5 μg/ml trimethoprim or 25 μg/ml phosphomycin, no L-arabinose, all strains, FIG. 15. The source says:
Methods. The genes folA, and murA were amplified from the genomic DNA of E. coli. Each gene was independently cloned in frame into pBAD/Myc-HisB vector, such that expression of the gene is under the regulation of the promoter PBAD. Hexahistidine encoding tags were incorporated into the 3′ end of the gene encoding the C-terminus of the protein through primer design. The construct introduced into the host cells of E. coli MC1061, resulting in Ec211 (construct with folA) and Ec261 (construct with murA).
The entire vector region (araC, PBAD, folA or murA, ampicillin resistance gene) of the above two constructs, but minus the origin, was PCR amplified through primer pairs homologous to regions flanking the origin. The PCR products were then linked at their 5′ ends to the 1 kb region upstream of yibD locus, and linked at their 3′ ends to the 1 kb region downstream of E. coli yibD locus (in effect, replacing yibD) by “crossover PCR” (Kim et al., 1996 Biotechniques 20: 954-5). The linear DNA product was gel purified and introduced into competent and recombinogenic MC1061. Recombinogenic ability was supplied by the red/gam function of plasmid pTP223.
Ec211, […], Ec238, Ec239, and MC1061 were freshly streaked onto Mueller Hinton Broth (MHB) plates. After an overnight incubation at 37° C., they were streaked into different segments onto different selection plates in the order of MHB supplemented with 5 μg/ml trimethoprim, MHB supplemented with 5 μg/ml trimethoprim and 0.1% L-arabinose, MHB supplemented with 25 μg/ml phosphomycin, MHB supplemented with 25 μg/ml phosphomycin and 0.1% L-arabinose, MHB supplemented with 0.1% L-arabinose, and finally plain MHB plates. The plates are 10 cm circular plates filled with 30 ml of media and divided into 6 equal segments. MC1061 was streaked in the first segment, Ec211 in second, Ec261 in third, Ec239 in fourth, Ec238 in fifth and the sixth segment was left blank.

For the molecule `C[C@@H]1O[C@@H]1P(=O)(O)O` [phosphomycin], the “growth on MHB plates” value in test [1] (5 μg/ml phosphomycin) is recorded as “slight growth”; in test [1] (25 μg/ml phosphomycin), “no growth”; in test [1] (50 μg/ml phosphomycin), “no growth”; in test [3] (5 μg/ml phosphomycin), “robust growth”; in test [3] (25 μg/ml phosphomycin), “robust growth”; in test [3] (50 μg/ml phosphomycin), “slight growth”. Further, the “sensitivity (MIC) on regulated under-expression of murA” value in test [2] is listed as “increased sensitivity”. Also, in test [4], the “growth on MHB plates supplemented with drug” value is “Nothing grew”. The “growth on MHB plates with drug and L-arabinose (over-expression rescue)” value in test [4] (25 μg/ml phosphomycin and 0.1% L-arabinose, Ec261 (multiple copies of murA) and Ec238 (two copies of murA)) was “grew up”.

As for `COc1cc(Cc2cnc(N)nc2N)cc(OC)c1OC` [trimethoprim], in test [2], the “sensitivity (MIC) on regulated under-expression of murA” value is “does not affect sensitivity”. The “growth on MHB plates with drug and L-arabinose (over-expression rescue)” value in test [4] (5 μg/ml trimethoprim and 0.1% L-arabinose, Ec211 (multiple copies of folA, PBAD)) is “the only strain that grew up”. Besides, the “growth on MHB plates supplemented with drug” value in test [4] is “Nothing grew”.
